Results: patent publication US20230391785A1, “NITROGEN-CONTAINING HETEROCYCLIC COMPOUND, METHOD FOR PREPARING SAME AND USE OF SAME” (280 Bio, Inc., priority 2021, published 2023)
Like-named read-outs stand apart in the source and are kept apart here.

What was measured:
Assay type in all cases: cell-based
[1] = system: AGS gastric cancer cell line (KRAS G12D mutation); assay: Proliferation inhibition measured by CTG (CellTiter Glo), AGS; conditions: CTG, 120 hours incubation
Source text: (§1) NCI-H358 is a human non-small cell lung cancer cell line with KRAS G12C mutation; PANC-1 and AsPC-1 are pancreatic cancer cell lines with KRAS G12D mutation; AGS is a gastric cancer cell line with KRAS G12D mutation; A427 is a lung cancer cell line with KRAS G12D mutation; THP-1 is a leukemia cell line with NRAS G12D mutation; Hs 578T is a breast cancer cell line with HRAS G12D mutation; SW480 is a colon cancer cell lines with KRAS G12V mutation; A375 is a wild type malignant melanoma cell line. The proliferation inhibitory effect of the compounds on various mutations was evaluated by determining the proliferation inhibitory activity of the compounds on these cell lines.
(§2) The assay was conducted on either 384-well plates or 96-well plates. The procedures are as follows:
(§3) The cell suspensions were added to 384- or 96-well plates (384-well plate: 40 μL; 96-well plate: […]) except for peripheral wells. The plates were incubated in a carbon dioxide incubator overnight. Prepared compounds (10 concentration gradients by serial 3-fold dilution) were added to the wells. The cell plates were incubated in a carbon dioxide incubator for 120 hours. CellTiter Glo reagent (384 well plate: 25 μL; 96 well plate: 100 μL) was added to the 384- or 96-well plates. The plates were shaken for 10 minutes away from light, and incubated for 10 minutes. The plates were read by EnVision system. Inhibition curves were plotted using XLFit and IC50 values were calculated. “IC50>10 μM” is denoted by “*”, “10 μM≥IC50>1 μM” is denoted by “**”, “1 μM≥IC50>100 nM” is denoted by “***”, and “IC50≤100 nM” is denoted by “****”.

[2] = system: NCI-H358 cells (KRAS G12C mutation); assay: Proliferation inhibition measured by CTG (CellTiter Glo), NCI-H358; conditions: Homo sapiens, 120 hours incubation
Source text: as §1, §2, §3

[3] = system: A375 wild type malignant melanoma cell line; assay: Proliferation inhibition measured by CTG (CellTiter Glo), A375; conditions: Homo sapiens, A-375, CTG, 120 hours incubation
Source text: as §1, §2, §3

[4] = system: SW480 colon cancer cell line (KRAS G12V mutation); assay: Proliferation inhibition measured by CTG (CellTiter Glo), SW480; conditions: Homo sapiens
Source text: as §1, §2, §3

[5] = Table 2, read-out: IC50 AGS (G12D)
[6] = Table 2, CTG, read-out: IC50 H358 (G12C)
[7] = Table 2, read-out: IC50 A375 (wide type)
[8] = Table 1, class symbol, read-out: IC50 (AGS)
[9] = Table 1, CTG, class symbol, read-out: IC50 (H358)
[10] = Table 1, class symbol, read-out: IC50 (A375)
[11] = Table 3, class symbol, read-out: IC50 (AGS)
[12] = Table 3, CTG, class symbol, read-out: IC50 (H358)
[13] = Table 3, 120 hours incubation, class symbol, read-out: IC50 (SW480)
[14] = Table 3, class symbol, read-out: IC50 (A375)

SMILES	IC50 [1, 5]	IC50 [2, 6]	IC50 [3, 7]	IC50 [1, 8]	IC50 [2, 9]	IC50 [3, 10]	IC50 [1, 11]	IC50 [2, 12]	IC50 ([4]; Table 2, 120 hours incubation, read-out: IC50 SW480 (G12V))	IC50 [4, 13]	IC50 [3, 14]
C=Cc1ncc2n1CCN(c1nc(OC[C@@H]3CCCN3C)nc3c1CCN(c1cccc4cccc(Cl)c14)C3)C2 [Comparative compound 2′, reference compound]	1480 nM	1230 nM	1610 nM	–	–	–	–	–	–	–	–
C=Cc1ncc2n1CCN(c1nc(OC[C@@H]3CCCN3C)nc3c1CCN(c1cccc4ccccc14)C3)C2 [Comparative compound 3′, reference compound]	1180 nM	1040 nM	1500 nM	–	–	–	–	–	–	–	–
CN1CCC[C@H]1COc1nc2c(c(N3CCn4cnc(C5CC5)c4C3)n1)CCN(c1cccc3cccc(Cl)c13)C2 [Compound 40]	–	–	–	100 to 1000 nM	100 to 1000 nM	100 to 1000 nM	–	–	–	–	–
Cc1ncn2c1CN(c1nc(OC[C@@H]3CCCN3C)nc3c1CCN(c1cccc4cccc(Cl)c14)C3)CC2 [Compound 41]	–	–	–	≤ 100 nM	100 to 1000 nM	100 to 1000 nM	–	–	–	–	–
CN1CCC[C@H]1COc1nc2c(c(N3CCn4cncc4C3)n1)CCN(c1cc(O)cc3ccccc13)C2 [Compound 43]	–	–	–	–	–	–	100 to 1000 nM	100 to 1000 nM	–	–	–
C[C@@H]1Cn2cncc2CN1c1nc(OC[C@@H]2CCCN2C)nc2c1CCN(c1cccc3cccc(Cl)c13)C2 [Compound 44]	24 nM	33 nM	36 nM	–	–	–	≤ 100 nM	≤ 100 nM	25 nM	≤ 100 nM	≤ 100 nM
CN1CCC[C@H]1COc1nc2c(c(N3CCn4c(cnc4Br)C3)n1)CCN(c1cccc3cccc(Cl)c13)C2 [Compound 49]	–	–	–	–	–	–	100 to 1000 nM	100 to 1000 nM	–	1000 to 10000 nM	1000 to 10000 nM
CN1CCC[C@H]1COc1nc2c(c(N3CCn4c(cnc4-c4ccccc4)C3)n1)CCN(c1cccc3cccc(Cl)c13)C2 [Compound 50]	–	–	–	–	–	–	1000 to 10000 nM	1000 to 10000 nM	–	1000 to 10000 nM	1000 to 10000 nM
CN1CCC[C@H]1COc1nc2c(c(N3CCn4cnc(C(N)=O)c4C3)n1)CCN(c1cccc3cccc(Cl)c13)C2 [Compound 52]	–	–	–	–	–	–	100 to 1000 nM	100 to 1000 nM	–	1000 to 10000 nM	1000 to 10000 nM
CN1CCC[C@H]1COc1nc2c(c(N3CCn4c(cnc4C4CC4)C3)n1)CCN(c1cccc3cccc(Cl)c13)C2 [Compound 53]	–	–	–	–	–	–	1000 to 10000 nM	1000 to 10000 nM	–	1000 to 10000 nM	1000 to 10000 nM
C[C@@H]1Cn2cncc2CN1c1nc(O[C@@H]2CCN(C)C2)nc2c1CCN(c1cccc3cccc(Cl)c13)C2 [Compound 57]	–	–	–	–	–	–	≤ 100 nM	≤ 100 nM	–	≤ 100 nM	100 to 1000 nM
C[C@@H]1Cn2cncc2CN1c1nc(OC[C@H]2CCCN2C)nc2c1CCN(c1cccc3cccc(Cl)c13)C2 [Compound 58]	–	–	–	–	–	–	≤ 100 nM	≤ 100 nM	–	≤ 100 nM	100 to 1000 nM
C[C@@H]1Cn2cncc2CN1c1nc(O[C@@H]2CCCN(C)C2)nc2c1CCN(c1cccc3cccc(Cl)c13)C2 [Compound 60]	–	–	–	–	–	–	100 to 1000 nM	100 to 1000 nM	–	100 to 1000 nM	1000 to 10000 nM
CCN1CCC[C@H]1COc1nc2c(c(N3Cc4cncn4C[C@H]3C)n1)CCN(c1cccc3cccc(Cl)c13)C2 [Compound 63]	–	–	–	–	–	–	≤ 100 nM	≤ 100 nM	–	≤ 100 nM	100 to 1000 nM
C[C@@H]1Cn2cncc2CN1c1nc(OC[C@@H]2CCCCN2C)nc2c1CCN(c1cccc3cccc(Cl)c13)C2 [Compound 64]	–	–	–	–	–	–	≤ 100 nM	≤ 100 nM	–	≤ 100 nM	≤ 100 nM
C[C@@H]1Cn2cncc2CN1c1nc(OC[C@@H]2CCCN2C)nc2c1CCN(c1cc(O)cc3ccccc13)C2 [Compound 66]	–	–	–	–	–	–	≤ 100 nM	≤ 100 nM	–	100 to 1000 nM	100 to 1000 nM
C[C@@H]1Cn2cncc2CN1c1nc(OC[C@@H]2CCCN2C)nc2c1CCN(c1cccc3ccccc13)C2 [Compound 68]	–	–	–	–	–	–	≤ 100 nM	≤ 100 nM	–	≤ 100 nM	100 to 1000 nM
